# Reference: PMC12736958 (Pharmaceutics, 2025)
# Assays:
# [1] = equilibrium solubility of crystalline Cur in excipient solutions; type: physicochemical; details: pure water, pH 7.0, 37 °C, filtered 0.22 μm, read-out: equilibrium solubility (Cur con.)
# Procedure: Excess crystalline Cur was suspended in each solution, vortexed (1 min), sonicated (10 min), and incubated (37 °C, 24 h). After incubation, suspensions were filtered (0.22 μm), and Cur concentration in the filtrate was quantified using HPLC/UV-Vis (HPLC/UV-Vis Method section). All experiments were performed in quadruplicate (n = 4).
# Cur content in in vitro dissolution samples was quantified using a Waters 2695 Alliance HPLC system (Waters Corporation, Milford, MA, USA) equipped with a Waters 2998 photodiode array (PDA) detector. Separation was performed on an XBridge® C18 column (4.6 × 250 mm, 5.0 μm; Waters) maintained at 25 °C. The mobile phase, composed of water and methanol (80:20, v/v), was delivered isocratically at a flow rate of 1.0 mL/min. The injection volume was 10 μL, and detection was performed at 430 nm, and Cur eluted at approximately 4.80 min. […] All data were acquired in triplicate (n = 3) and processed using Empower®3 Software (Waters).
# [2] = cited from earlier work
smiles,measurement,setting,value
COc1cc(/C=C/C(=O)CC(=O)/C=C/c2ccc(O)c(OC)c2)ccc1O [Curcumin],solubility thermodynamic at 24 h,[1],< 0.1 µg/mL
same,logP,[2],≈ 3
